# Measurements taken from US7273848B2, “Apolipoprotein A-I agonists and their use to treat dyslipidemic disorders” (priority 1997, dated 2007).
# Non-standard residues stand in square brackets, D forms with d. Residues, ends and D or L forms follow the SMILES beside them. Aib = CC(C)(N)C(=O)O
# How the values were obtained:
# [1] = target: T1, LCAT (purified from human plasma) (Homo sapiens, UniProt P04180); assay: LCAT activation assay; assay type: biochemical; settings: LCAT activation as compared with native human ApoA-I (= 100%), equivalent masses
# T1 construct: from tissue; host or cells: human plasma
# T1 sequence (P04180 25-440): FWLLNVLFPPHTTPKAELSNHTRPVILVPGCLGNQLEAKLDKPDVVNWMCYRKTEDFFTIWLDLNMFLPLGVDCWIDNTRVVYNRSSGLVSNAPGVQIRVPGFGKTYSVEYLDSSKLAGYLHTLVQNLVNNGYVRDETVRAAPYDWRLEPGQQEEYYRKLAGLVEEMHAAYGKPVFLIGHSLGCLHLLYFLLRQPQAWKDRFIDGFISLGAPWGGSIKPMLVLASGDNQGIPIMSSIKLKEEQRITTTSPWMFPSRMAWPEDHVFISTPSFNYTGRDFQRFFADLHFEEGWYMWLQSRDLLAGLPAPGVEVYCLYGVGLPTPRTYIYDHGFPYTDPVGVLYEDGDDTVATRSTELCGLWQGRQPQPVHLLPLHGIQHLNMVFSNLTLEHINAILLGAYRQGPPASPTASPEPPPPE
# Description: The peptides synthesized as described in Section 6, supra, were analyzed in vitro for their ability to activate LCAT. In the LCAT assay, substrate vesicles (small unilamellar vesicles or “SUVs”) composed of egg phophatidylcholine (EPC) or 1-Palmitoyl-2-oleyl-phosphatidyl-choline (POPC) and radiolabelled cholesterol are preincubated with equivalent masses either of peptide or ApoA-I (isolated from human plasma). The reaction is initiated by addition of LCAT (purified from human plasma). Native ApoA-I, which was used as positive control, represents 100% activation activity. “Specific activity” (i.e., units of activity (LCAT activation)/unit of mass) of the peptides can be calculated as the concentration of peptide that achieves maximum LCAT activation. For example, a series of concentrations of the peptide (e.g., a limiting dilution) can be assayed to determine the “specific activity” for the peptide—the concentration which achieves maximal LCAT activation (i.e., percentage conversion of cholesterol to cholesterol ester) at a specific timepoint in the assay (e.g., 1 hr.). When plotting percentage conversion of cholesterol at, e.g., 1 hr., against the concentration of peptide used, the “specific activity” can be identified as the concentration of peptide that achieves a plateau on the plotted curve.
# The vesicles used in the LCAT assay are SUVs composed of egg phosphatidylcholine (EPC) or 1-palmitoyl-2-oleyl-phosphatidylcholine (POPC) and cholesterol with a molar ratio of 20:1. To prepare a vesicle stock solution sufficient for 40 assays, 7.7 mg EPC (or 7.6 mg POPC; 10 μmol), 78 μg (0.2 μmol) 4-^14C-cholesterol, 116 μg cholesterol (0.3 μmol) are dissolved in 5 ml xylene and lyophilized. Thereafter 4 ml of assay buffer is added to the dry powder and sonicated under nitrogen atmosphere at 4° C. Sonication conditions: Branson 250 sonicator, 10 mm tip, 6×5 minutes; Assay buffer: 10 mM Tris, 0.14 M NaCl, 1 mM EDTA, pH 7.4). The sonicated mixture is centrifuged 6 times for 5 minutes each time at 14,000 rpm (16,000×g) to remove titanium particles. The resulting clear solution is used for the enzyme assay.
# For the LCAT purification, dextran sulfate/Mg^2+ treatment of human plasma is used to obtain lipoprotein deficient serum (LPDS), which is sequentially chromatographed on Phenylsepharose, Affigelblue, ConcanavalinA sepharose and anti-ApoA-I affinity chromatography, as summarized for a representative purification in TABLE IX, below: […]
# [2] = Circular dichroism helicity determination; assay type: physicochemical; settings: percent helicity
# Description: Far UV circular dichroism spectra were recorded between 190 and 260 nm (in 0.5 nm or 0.2 nm increments) with a AVIV62DS spectrometer (AVIV Associates, Lakewood, N.J., USA) equipped with a thermoelectric cell holder and sample changer. The instrument was calibrated with (+)-10-[…]. Between one and three scans were collected for each sample, using 10 cm, 5 cm, 1 cm and 0.1 cm path length quartz Suprasil cells, respectively, for peptide concentrations of 10^−7 M to 10^−4 M. The bandwidth was fixed at 1.5 nm and the scan speed to 1s per wavelength step. The reported data are the mean of at least 2 or 3 independent measurements.
# After background substraction, spectra were converted to molar ellipticity (θ) per residue in deg. […] dmol^−1. The peptide concentration was determined by amino acid analysis and also by absorption spectrometry on a Perkin Elmer Lambda 17 UV/Visible spectrophotometer when the peptide contained a chromophore (tryptophane, dansyl, naphtylalanine).
# CD spectra were obtained with free, unbound peptide (5 μM in 5 mM phosphate buffer, pH 7.4); with peptide-SUV complexes (20:1 EPC:Chol., Ri=30 and Ri=50); with peptide-micelle complexes (1-myristoyl-2-hydroxy-sn-glycero-3-phosphatidyl choline, Ri=100); and with free, unbound peptide in the presence of 2,2,2-trifluoroethanol (TFE) (5 μM peptide, 90% vol TFE).
# The SUVs were obtained by dispersing the lipids (10 mM, 20:1 EPC:Chol., Avanti Polar Lipids, AL) in phosphate buffer (5 mM, pH 7.4) with bubbling N2 for 5 min., followed by sonication (1.5 hr.) in a bath sonicator. The homogeneity of the preparation was checked by FPLC.
# The micelles were obtained by dispersing the lipid (6 mM 1-myristoyl-2-hydroxy-sn-glycero-3-phosphatidyl choline, Avanti Polar Lipids, AL) in phosphate buffer (5 mM, pH 7.4) with bubbling N2 for 5 min., followed by vortexing.
# To obtain the peptide-SUV complexes, SUVs were added to the peptide (5 μM in 5 mM phosphate buffer, pH 7.4) at a phospholipid-peptide molar ratio (Ri) of 30 or 50.
# To obtain the peptide-micelle complexes, micelles were added to the peptide (5 μM in 5 mM phosphate buffer, pH 7.4) at a Ri of 100.
# All spectra were recorded at 37° C.
# The degree of helicity of the peptides in the various conditions was determined from the mean residue ellipticity at 222 nm (Chen et al., 1974, Biochemistry 13:3350-3359) or by comparing the CD spectra obtained to reference spectra available on databases (16 helical reference spectra from Provencher & Glockner, 1981, Biochemistry 20:33-37; denatured protein reference spectra from Venyaminov et al., 1993, Anal. Biochem. 214:17-24) using the CONTIN curve-fitting algorithm version 2DP, CD-1 pack (August 1982) (Provencher, 1982, Comput. Phys. Commun. 27:213-227, 229-242). Acceptable fit was determined using the statistical analysis methodology provided by the CONTIN algorithm. The error of all methods was ±5% helicity.
Compound,ACTIVITY (%) LCAT [1],further results
CC(C)C[C@H](NC(=O)[C@H](C)NC(=O)[C@H](CCC(=O)O)NC(=O)[C@H](CC(C)C)NC(=O)[C@H](CC(C)C)NC(=O)[C@H](CCC(=O)O)NC(=O)[C@H](CC(N)=O)NC(=O)[C@H](CC(C)C)NC(=O)[C@H](CC(C)C)NC(=O)[C@H](CCC(=O)O)NC(=O)[C@H](CCCNC(=N)N)NC(=O)[C@H](Cc1ccccc1)NC(=O)[C@H](CC(C)C)NC(=O)[C@H](CC(=O)O)NC(=O)[C@H](CC(C)C)NC(=O)[C@@H](NC(=O)[C@H]1CCCN1)C(C)C)C(=O)N[C@@H](CCCCN)C(=O)N[C@@H](CCC(N)=O)C(=O)N[C@@H](CCCCN)C(=O)N[C@@H](CC(C)C)C(=O)N[C@@H](CCCCN)C(=O)N[C@@H](CCCCN)C(=O)O [compound 5],90%,
CC(C)C[C@H](NC(=O)CNC(=O)[C@H](CCC(=O)O)NC(=O)[C@H](CC(N)=O)NC(=O)[C@H](CC(C)C)NC(=O)[C@H](CC(C)C)NC(=O)[C@H](CCC(=O)O)NC(=O)[C@H](CCCNC(=N)N)NC(=O)[C@H](Cc1ccccc1)NC(=O)[C@H](CC(C)C)NC(=O)[C@H](CC(=O)O)NC(=O)[C@H](CC(C)C)NC(=O)[C@@H](NC(=O)[C@H]1CCCN1)C(C)C)C(=O)N[C@@H](CCC(=O)O)C(=O)N[C@@H](C)C(=O)N[C@@H](CC(C)C)C(=O)N[C@@H](CCCCN)C(=O)N[C@@H](CCC(N)=O)C(=O)N[C@@H](CCCCN)C(=O)N[C@@H](CC(C)C)C(=O)N[C@@H](CCCCN)C(=O)O [compound 19] (H-[dP]VLDLFRELLNEGLEALKQKLK-OH),58%,
CC(C)C[C@H](NC(=O)[C@H](C)NC(=O)[C@H](CCC(=O)O)NC(=O)[C@H](CC(C)C)NC(=O)[C@H](CC(C)C)NC(=O)[C@H](CCC(=O)O)NC(=O)[C@H](CC(N)=O)NC(=O)[C@H](CC(C)C)NC(=O)[C@H](CC(C)C)NC(=O)[C@H](CCC(=O)O)NC(=O)[C@H](CCCNC(=N)N)NC(=O)[C@H](Cc1ccccc1)NC(=O)[C@H](CC(C)C)NC(=O)[C@H](CC(=O)O)NC(=O)[C@H](CC(C)C)NC(=O)[C@@H](NC(=O)[C@H]1CCCN1)C(C)C)C(=O)N[C@@H](CCCCN)C(=O)N[C@@H](CCC(N)=O)C(=O)N[C@@H](CCCCN)C(=O)N[C@@H](CC(C)C)C(=O)N[C@@H](CCCCN)C(=O)O [compound 21],57%,
"CC(C)C[C@H](NC(=O)[C@H](C)NC(=O)[C@H](CCC(=O)O)NC(=O)[C@H](CC(C)C)NC(=O)[C@H](CC(C)C)NC(=O)[C@H](CCC(=O)O)NC(=O)[C@H](CC(N)=O)NC(=O)[C@H](CC(C)C)NC(=O)[C@H](CC(C)C)NC(=O)[C@H](CCC(=O)O)NC(=O)[C@H](CCCNC(=N)N)NC(=O)[C@H](Cc1ccccc1)NC(=O)[C@H](CC(C)C)NC(=O)[C@H](CC(=O)O)NC(=O)[C@H](CC(C)C)NC(=O)[C@@H](NC(=O)C(C)(C)N)C(C)C)C(=O)N[C@@H](CCCCN)C(=O)N[C@@H](CCC(N)=O)C(=O)N[C@@H](CCCCN)C(=O)N[C@@H](CC(C)C)C(=O)N[C@@H](CCCCN)C(=O)O [compound 32, XVLDLFRELLNELLEALKQKLK] (H-[Aib]VLDLFRELLNELLEALKQKLK-OH)",33%,
"CC(C)C[C@H](NC(=O)[C@H](C)NC(=O)[C@H](CCC(=O)O)NC(=O)[C@H](CC(C)C)NC(=O)C(C)(C)NC(=O)[C@H](CCC(=O)O)NC(=O)[C@H](Cc1c[nH]c2ccccc12)NC(=O)[C@H](CC(C)C)NC(=O)[C@H](CCCCN)NC(=O)[C@H](CCC(=O)O)NC(=O)[C@H](CCCNC(=N)N)NC(=O)[C@H](Cc1ccccc1)NC(=O)[C@H](CCC(=O)O)NC(=O)[C@H](CC(=O)O)NC(=O)[C@H](CC(C)C)NC(=O)[C@@H](NC(=O)[C@@H]1CCCN1)C(C)C)C(=O)N[C@@H](CCCCN)C(=O)N[C@@H](CCC(N)=O)C(=O)N[C@@H](CCCCN)C(=O)N[C@@H](CC(C)C)C(=O)N[C@@H](CCCCN)C(=O)O [compound 43, PVLDEFREKLWEXLEALKQKLK] (H-PVLDEFREKLWE[Aib]LEALKQKLK-OH)",25%,
CC(C)C[C@H](NC(=O)[C@H](C)NC(=O)[C@H](CCC(=O)O)NC(=O)[C@H](CC(C)C)NC(=O)[C@H](CC(C)C)NC(=O)[C@H](CCC(=O)O)NC(=O)[C@H](CC(N)=O)NC(=O)[C@H](CC(C)C)NC(=O)[C@H](CC(C)C)NC(=O)[C@H](CCC(=O)O)NC(=O)[C@H](CCCNC(=N)N)NC(=O)[C@H](Cc1ccccc1)NC(=O)[C@H](CC(C)C)NC(=O)[C@H](CC(=O)O)NC(=O)[C@H](CC(C)C)NC(=O)[C@H](NC(=O)[C@H]1CCCN1)C(C)C)C(=O)N[C@@H](CCCCN)C(=O)N[C@@H](CCC(N)=O)C(=O)N[C@@H](CCCCN)C(=O)N[C@@H](CC(C)C)C(=O)N[C@@H](CCCCN)C(=O)O [compound 48],22%,
"CC(C)C[C@H](NC(=O)[C@H](C)NC(=O)[C@H](CCC(=O)O)NC(=O)[C@H](CC(C)C)NC(=O)C(C)(C)NC(=O)[C@H](CCC(=O)O)NC(=O)[C@H](CC(N)=O)NC(=O)[C@H](CC(C)C)NC(=O)[C@H](CCCCN)NC(=O)[C@H](CCC(=O)O)NC(=O)[C@H](CCCNC(=N)N)NC(=O)[C@H](Cc1ccccc1)NC(=O)[C@H](CCC(=O)O)NC(=O)[C@H](CC(=O)O)NC(=O)[C@H](Cc1c[nH]c2ccccc12)NC(=O)[C@@H](NC(=O)[C@@H]1CCCN1)C(C)C)C(=O)N[C@@H](CCCCN)C(=O)N[C@@H](CCC(N)=O)C(=O)N[C@@H](CCCCN)C(=O)N[C@@H](CC(C)C)C(=O)N[C@@H](CCCCN)C(=O)O [compound 52, PVWDEFREKLNEXLEALKQKLK] (H-PVWDEFREKLNE[Aib]LEALKQKLK-OH)",20%,
"Ac-PVLDEFREKLNEELEALKQKLK-NH2 [peptide 75, reference compound]",,"He (%) TFE ([2]; 5 μM peptide, 90% vol TFE, 37° C.): 55%; He (%) free ([2]; free, unbound peptide 5 μM in 5 mM phosphate buffer, pH 7.4, 37° C.): 18%; He (%) SUVs ([2]; peptide-SUV complexes (20:1 EPC:Chol., Ri=30 and Ri=50), 37° C.): 23%; He (%) mics ([2]; peptide-micelle complexes, Ri=100, 37° C.): 28%"
